Measured values taken from patent publication US10894941B2, “Microfluidic multi-well-based cell culture testing device” (QUANTA MATRIX CO,. LTD., priority 2013, dated 2021).

Experiments:
Assay type in all cases: cell-based
E. faecalis strain = test: antibiotic susceptibility testing (MIC) using the MAC chip; settings: agarose, 37° C., 4-h incubation
Method: For this experiment, an E. faecalis solution was homogenized with liquid agarose and was injected into the chip. The agarose was gelled at room temperature. Thereafter, liquid penicillin as an antibiotic was injected into the well spaces. The chip was then incubated at an incubator at 37° C. and the results were observed after 4-h incubation.
The MIC of penicillin (2 μg/ml) could be obtained in 4 hours. In contrast, according to micro-dilution testing (MDT), a much longer time (18 hours) was consumed to obtain the MIC of penicillin.

E. coli ATCC 25922 = test: double infection imaging in MAC chip, antibiotic susceptibility; settings: gentamicin 32 μg/mL, erythromycin 8 μg/mL; 3 h incubation; 2% agarose
Method: (§1) The experimental conditions are as follows: • Strains • E. coli ATCC 25922 (rod-shaped strain) • E. faecalis ATCC 29212 (spherical strain) • Antibiotics • Gentamicin (concentration: 32 μg/mL)
(§2) […] At this time, the coexistence of the rod-shaped bacteria and the spherical bacteria was confirmed. It could also be confirmed whether double infection with the bacteria occurred.

E. faecalis ATCC 29212 = test: as above; settings: gentamicin 32 μg/mL, erythromycin 8 μg/mL; 3 h incubation; 2% agarose
Method: as §1, §2

Compound	MIC (E. faecalis strain)	susceptibility (E. coli ATCC 25922)	susceptibility (E. faecalis ATCC 29212)
penicillin	2 µg/mL	–	–
CC[C@H]1OC(=O)[C@H](C)[C@@H](O[C@H]2C[C@@](C)(OC)[C@@H](O)[C@H](C)O2)[C@H](C)[C@@H](O[C@@H]2O[C@H](C)C[C@H](N(C)C)[C@H]2O)[C@](C)(O)C[C@@H](C)C(=O)[C@H](C)[C@@H](O)[C@]1(C)O [Erythromycin]	–	Susceptible to E. faecalis ATCC 29212 only	Susceptible to E. faecalis ATCC 29212 only
Gentamicin	–	MICs are in the susceptible range for both strains	MICs are in the susceptible range for both strains
